One experiment addresses ErbB2 (Homo sapiens, UniProt P04626). As to conditions: cited from earlier work.
The test system of a further experiment is BT474-M3 xenograft. In words: Xenograft tumor model treated with H3×B1D2, BT474-M3. Type of experiment: in vivo, mouse. To be noted: 600 μg/injection every 3 days, negative RGR = tumor regression. Here is the method:
(§1) To characterize the in vivo response of tumors to H3×B1D2 treatment, a panel of tumor cell lines was tested in a xenograft tumor model such as described in Example 1. In the xenograft tumor models, mice (nu/nu mice: 4-5 week old female mice, athymic, nude, outbred background; Albino; purchased from Charles River Labs, Wilmington, Mass.) are implanted in the flank with 5×10^6-2×10^7 cells/mouse (depending on cell line) in […] subcutaneous injection. Mice are monitored for initial tumor growth. Tumors are allowed to grow for several days until the mean tumor volume is approximately 150-200 mm^3. The tumor volume is calculated as V=(π/6 (L×W^2). The mice are treated with the H3×B1D2 antibody at a dosage of 600 μg/injection every 3 days (q3d). Control mice are treated with phosphate buffered saline (PBS) or with wild-type HSA (human serum albumin). Tumor volume is measured for 40-80 days.
(§2) The control and treatment data from the in vivo xenograft experiments was fitted to exponential growth curves, using the following formula: […]
(§3) wherein V is the tumor volume, Vo is the tumor volume at time zero, k is the exponential growth rate and t is the time. The potency of H3×B1D2 in inhibiting tumor growth was represented as the ratio of treatment and control exponential growth rates for each cell line tested. This ratio was denoted “relative growth rate” (RGR) and is represented as: […]

Another experiment relates to IGROV1 xenograft. In words: Xenograft tumor model treated with H3×B1D2, IGROV1. It is filed as in vivo, mouse. As to conditions: 600 μg/injection every 3 days, RGR of 1 = no effect. The protocol: as §1, §2, §3
Another experiment deals with LS180 xenograft. Briefly: Xenograft tumor model treated with H3×B1D2, LS180. It is filed as in vivo, mouse. As to conditions: 600 μg/injection every 3 days, RGR of 1 = no effect. Here is the method: as §1, §2, §3
Experiment [1] deals with pErbB3 and pAKT signaling in different cell lines. In words: Inhibition of HRG-induced pErbB3 and pAKT signaling by H3×B1D2, different cell lines. It is filed as cell-based. To be noted: across different cell lines; 5 nM HRG stimulation, ten-minute lysis. Here is the method:
(§4) For stimulation of the cells, the cells are seeded in duplicate wells with 1000 μl complete media at 150,000 cells per well in 12 well tissue culture plates (for 96 half well ELISA) or in duplicate plate of 100 μl complete media at 20,000 cells per well in 96 well tissue culture plates (for 384 well ELISA). These cells are incubated overnight in a humidified atmosphere of 5% CO2, 95% air and 37 degrees Celsius. Cells are then switched to serum free media: RPMI-1640 media (Gibco) supplemented with, 2 mM L-glutamine (Gibco) and units/mL Pen-Strep (Gibco). Starved cells are incubated in a humidified atmosphere of 5% CO2, 95% air and 37 degrees Celsius for 20-24 hours prior to stimulation. For dose-time matrix studies, cells are stimulated with ligand (HRG) at 0, 1, 2, 3, 4, 5, 7, 10, 20, 30, 60 and 120 minutes. […]
(§5) Levels of protein phosphorylation in the stimulated cells are measured by ELISA. ErbB1, ErbB2, and ErbB3 are measured using R&D Systems Duoset IC kits (ErbB1 DYC1095-E, ErbB2 DYC1768-E, ErbB3 DYC1769-E). […] All ELISAs are visualized with SuperSignal ELISA Pico Chemiluminescent Substrate (Pierce, Catalog #37069) and luminescent signal is measured using a luminometer. […]

The test system of experiment [2] is pErbB3 and pAKT in OVCAR8-HER2 cells. Briefly: Inhibition of pErbB3 and pAKT by H3×B1D2 in OVCAR8-HER2 cells. It is filed as cell-based. To be noted: OVCAR8-HER2 (higher ErbB2 expression) compared to OVCAR8. Here is the method: as §4, §5
Experiment [3] has as its system pErbB3 and pAKT in ADRr cells. Briefly: Inhibition of pErbB3 and pAKT by H3×B1D2 in ADRr cells. It is filed as cell-based. As to conditions: ADRr cells (low ErbB2), computational model and experimental data. Here is the method:
as §4, §5

`CS(=O)(=O)CCNCc1ccc(-c2ccc3ncnc(Nc4ccc(OCc5cccc(F)c5)c(Cl)c4)c3c2)o1` [lapatinib]: the “Lapatinib on-rate for binding to ErbB2 or 2-3 dimers before unit conversion” value at ErbB2 is given as “Unit conversion calculated as 2.95e3 M^−1s^−1/”.
Turning to “H3×B1D2: bispecific antibody, anti-ErbB3 single chain antibody H3 linked to anti-ErbB2 single chain antibody B1D2, SEQ ID NO: 41”, the “relative growth rate (RGR = kH3×B1D2/kcontrol)” value is on record as “negative” in the experiment on BT474-M3 xenograft, “greater than 1” in the experiment on IGROV1 xenograft and “greater than 1” in the experiment on LS180 xenograft. Also, the “IC50 of inhibition of pErbB3 and pAKT signaling” value in experiment [1] was “did not greatly change”. In addition, the “inhibition percentage of pErbB3 and pAKT” value in experiment [2] is “greater inhibition percentage”. For the same molecule, the “percentage of inhibition of pErbB3 and pAKT” value in experiment [3] is “poor percentage of inhibition”.
